# Measurements reported in patent publication US11866433B2, “Diarylthiohydantoin compound as androgen receptor antagonist” (CHIA TAI TIANQING PHARMACEUTICAL GROUP CO., LTD., priority 2017, dated 2024).
# Target: T1, androgen receptor (AR) (Homo sapiens, UniProt P10275)
# T1 sequence (P10275 1-920): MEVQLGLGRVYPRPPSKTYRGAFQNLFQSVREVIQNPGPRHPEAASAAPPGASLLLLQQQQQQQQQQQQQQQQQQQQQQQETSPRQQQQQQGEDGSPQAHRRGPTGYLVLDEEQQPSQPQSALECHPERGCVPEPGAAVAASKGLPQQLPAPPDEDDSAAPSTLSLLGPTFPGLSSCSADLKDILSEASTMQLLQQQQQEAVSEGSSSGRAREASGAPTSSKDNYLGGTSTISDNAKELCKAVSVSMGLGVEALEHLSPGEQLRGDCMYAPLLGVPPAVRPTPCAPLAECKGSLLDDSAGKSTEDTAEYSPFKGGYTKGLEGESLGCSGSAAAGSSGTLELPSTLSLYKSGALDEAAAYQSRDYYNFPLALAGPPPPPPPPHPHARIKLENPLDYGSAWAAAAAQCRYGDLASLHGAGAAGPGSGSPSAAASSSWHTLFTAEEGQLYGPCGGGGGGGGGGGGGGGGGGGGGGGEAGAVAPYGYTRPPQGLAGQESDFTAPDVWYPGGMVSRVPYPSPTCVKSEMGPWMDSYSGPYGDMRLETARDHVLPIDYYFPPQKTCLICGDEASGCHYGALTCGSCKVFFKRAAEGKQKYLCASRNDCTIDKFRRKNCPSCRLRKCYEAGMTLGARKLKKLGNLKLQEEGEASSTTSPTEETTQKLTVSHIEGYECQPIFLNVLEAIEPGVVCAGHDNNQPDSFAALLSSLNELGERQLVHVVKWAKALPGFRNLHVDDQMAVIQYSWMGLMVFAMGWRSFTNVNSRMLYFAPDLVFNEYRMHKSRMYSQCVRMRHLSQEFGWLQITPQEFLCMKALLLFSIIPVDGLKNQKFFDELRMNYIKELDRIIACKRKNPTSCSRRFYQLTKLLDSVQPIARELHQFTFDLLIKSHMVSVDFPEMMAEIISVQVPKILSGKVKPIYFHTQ
# Assay: Antagonism of compounds on nuclear translocation of androgen receptor (PathHunter NHR cell lines)
# Assay type: cell-based
# Settings: antagonist mode, agonist 6a-Fluorotestosterone 0.06 μM (EC80)
# Protocol: Example 75 Test of Antagonism of Compounds on Nuclear Translocation of Androgen Receptor (AR)
# 1. PathHunter NHR cell lines were recovered and cultured for amplification.
# 2. The cells were inoculated onto a 384-well plate prior to testing, and incubated at 37° C. The serum for culture was filtered with charcoal-dextran to reduce the hormone level therein.
# 3. In the detection of the antagonistic function, a compound was added to the cells and incubated for 60 min. The working concentration of the test compound was diluted from 10 μM at a 3-fold concentration gradient, respectively including: […]. Then, an agonist 6a-Fluorotestosterone 0.06 μM (concentration: EC80, i.e., 80% agonistic compound concentration) was added, and the mixture was incubated at 37° C. or at room temperature for 3-16 h.
# 4. Signal detection: 12.5 μL or 15 μL (50%, v/v) PathHunter detection mixed solution (kit: DiscoverX product catalog number: 93-0001 series) was added, and incubated at room temperature for 1 h. The chemiluminescent signal was read with a PerkinElmer Envision™ instrument.
# 5. Data analysis: The compound activity was analyzed with CBIS data analysis software (ChemInnovation, CA). The calculation formula of the inhibition percent of the antagonist is as follows: IC50 inhibition ratio (%)=[…]×(1−(average RLU value of the test compound−average RLU value of the blank control group)/(average RLU value of EC80 control group−average RLU value of the blank control group)).
row,Structure (SMILES),IC50 [nM]
1,CCc1nc(OCCO)c2cc(N3C(=S)N(c4ccc(C#N)c(C(F)(F)F)c4)C(=O)C3(C)C)ccc2n1 [Compound 27],2210
2,CCc1nc(-c2cc[nH]n2)c2cc(N3C(=S)N(c4ccc(C#N)c(C(F)(F)F)c4)C(=O)C3(C)C)cc(F)c2n1 [Compound 52],1230
3,CCc1cc(=O)n2cc(N3C(=S)N(c4cnc(C#N)c(C(F)(F)F)c4)C(=O)C3(C)C)cc(F)c2n1 [Compound 53],2110
4,CCc1cc(=O)n2cc(N3C(=S)N(c4ccc(C#N)c(C(F)(F)F)c4)C(=O)C34CCC4)cc(F)c2n1 [Compound 54],2500
5,CCOc1cc(=O)n2cc(N3C(=S)N(c4ccc(C#N)c(C(F)(F)F)c4)C(=O)C3(C)C)cc(F)c2n1 [Compound 55],1400
6,CCc1nc2ccc(-n3c(=S)n(-c4ccc(C#N)c(C(F)(F)F)c4)c4nccc(C)c43)cc2c(=O)[nH]1 [Compound 56],2860
7,CCc1cc(=O)n2cc(N3C(=S)N(c4ccc(C#N)c(C(F)(F)F)c4)C(=O)C3(C)C)cc(OC)c2n1 [Compound 57],5470
8,CCc1cc(=O)n2cc(N3C(=S)N(c4ccc(C#N)c(F)c4)C(=O)C3(C)C)cc(F)c2n1 [Compound 59],8920
9,CCc1cc(=O)n2cc(N3C(=S)N(c4ccc(C#N)c(C(F)(F)F)c4)C(=O)C3(C)C)cc(C)c2n1 [Compound 60],1830
10,CCc1cc(=O)n2cc(N3C(=S)N(c4ccc(C#N)c(C(F)(F)F)c4)C(=O)C3(C)C)cc(Cl)c2n1 [Compound 61],1450
11,CC1(C)C(=O)N(c2ccc(C#N)c(C(F)(F)F)c2)C(=S)N1c1cc(F)c2nc(C(F)F)cc(=O)n2c1 [Compound 62],1690
12,CCc1nc(-c2c[nH]cn2)c2cc(N3C(=S)N(c4ccc(C#N)c(C(F)(F)F)c4)C(=O)C3(C)C)cc(F)c2n1 [Compound 63],1340
13,CCOc1cc(=O)n2cc(N3C(=S)N(c4cnc(C#N)c(C(F)(F)F)c4)C(=O)C3(C)C)cc(F)c2n1 [Compound 64],2810
14,COCCOc1cc(=O)n2cc(N3C(=S)N(c4ccc(C#N)c(C(F)(F)F)c4)C(=O)C3(C)C)cc(F)c2n1 [Compound 65],2090
15,CCc1cc(=O)n2cc(-n3c(=S)n(-c4ccc(C#N)c(C(F)(F)F)c4)c4nccc(C)c43)cc(F)c2n1 [Compound 66],7120
16,CC1(C)C(=O)N(c2ccc(C#N)c(C(F)(F)F)c2)C(=S)N1c1cc(F)c2nc(OCCO)cc(=O)n2c1 [Compound 67],2300
17,COc1cc(=O)n2cc(N3C(=S)N(c4ccc(C#N)c(C(F)(F)F)c4)C(=O)C3(C)C)cc(F)c2n1 [Compound 68],1910
18,COCc1cc(=O)n2cc(N3C(=S)N(c4ccc(C#N)c(C(F)(F)F)c4)C(=O)C3(C)C)cc(F)c2n1 [Compound 69],4000
19,CCOc1nc(OCCO)c2cc(N3C(=S)N(c4ccc(C#N)c(C(F)(F)F)c4)C(=O)C3(C)C)cc(F)c2n1 [Compound 70],4270
20,COc1nc(OCCO)c2cc(N3C(=S)N(c4ccc(C#N)c(C(F)(F)F)c4)C(=O)C3(C)C)cc(F)c2n1 [Compound 71],2760
21,CCOc1nc(OCCO)c2cc(N3C(=S)N(c4cnc(C#N)c(C(F)(F)F)c4)C(=O)C3(C)C)cc(F)c2n1 [Compound 72],2410
22,COc1nc(OCCO)c2cc(N3C(=S)N(c4cnc(C#N)c(C(F)(F)F)c4)C(=O)C3(C)C)cc(F)c2n1 [Compound 73],2130
23,CC1(C)C(=O)N(c2cnc(C#N)c(C(F)(F)F)c2)C(=S)N1c1cc(F)c2nc(C(F)F)cc(=O)n2c1 [Compound 74],2960
24,CCc1cc(=O)n2cc(N3C(=S)N(c4cnc(C#N)c(Cl)c4)C(=O)C3(C)C)cc(F)c2n1 [Compound 75],920

# System: not listed separately
# Assay: Tissue distribution test of Compound 27 and Compound 10 (plasma and brain)
# Assay type: in vivo
# Settings: intragastric 2 mg/kg, 2 h after administration, male CD-1 mice
# Protocol: Taking male CD-1 mice as test animals, drug concentrations in plasma and brain after intragastric administration of Compound 27 and Compound 10 to the mice were determined by the LC/MS/MS method, respectively.
# 2.2 Test Animals: Six healthy adult male CD-1 mice were divided into 2 groups, with 3 mice in each group, according to the principle of similar body weight. The animals were purchased from Shanghai Super-BK Laboratory Animal Co., Ltd., with Animal Production License No.: SCXK (Shanghai) 2013-0016.
# An appropriate amount of sample was weighed, and an appropriate amount of DMSO, PEG400 and water were added successively at a volume ratio of 10:40:50. After stirring and ultrasonic processing, the resulting mixture reached a clear solution state of 0.4 mg/mL.
# Six male CD-1 mice were divided into 2 groups, fasted overnight, and intragastrically administered at an administration volume of 5 mL/kg in a dose of 2 mg/kg.
# After Compound 27 and Compound 10 were intragastrically administered to the male CD-1 mice, 100 μL of blood was collected by cardiac puncture at 2 h, placed in a test tube containing 2 μl of EDTA-K2, and centrifuged at 3000 g for 15 min to separate 50 μL of plasma, which was stored at −60° C. Meanwhile, brain tissues were collected, washed, then homogenized with 5-fold 15 mM PBS/MeOH (v:v, 2:1), and stored at −60° C. The animals were allowed to eat 2 hours after administration.
# After intragastric administration to the mice, the content of the test compound in plasma and brain was determined by the LC/MS/MS method. The linear range of the method was 2.00-6000 nmol/L; and the plasma samples were analyzed after the treatment with acetonitrile precipitated protein.
row,Structure (SMILES),Concentration in Brain [nmol/kg]
1,CCc1nc(OCCO)c2cc(N3C(=S)N(c4ccc(C#N)c(C(F)(F)F)c4)C(=O)C3(C)C)ccc2n1 [Compound 27],85.2 ± 21.9

# Same assay, conditions: mouse, brain / plasma, oral; intragastric 2 mg/kg, 2 h after administration, male CD-1 mice; read-out: Brain to Blood Ratio
row,Structure (SMILES),Kp at 2 h
1,CCc1nc(OCCO)c2cc(N3C(=S)N(c4ccc(C#N)c(C(F)(F)F)c4)C(=O)C3(C)C)ccc2n1 [Compound 27],0.00917 ± 0.0004

# Same assay, conditions: mouse, plasma, oral; intragastric 2 mg/kg, 2 h after administration, male CD-1 mice
row,Structure (SMILES),concentration at 2 h [µM]
1,CCc1nc(OCCO)c2cc(N3C(=S)N(c4ccc(C#N)c(C(F)(F)F)c4)C(=O)C3(C)C)ccc2n1 [Compound 27],9.25 ± 2.11

# System: Human prostate cancer LNCaP-FGC cells
# Assay: In vivo pharmacodynamic study on subcutaneous xenograft tumor model of human prostate cancer LNCaP-FGC cells
# Design: species or system CB-17 SCID mice
# Settings: 50 mg/kg PO QD, after 21 days of administration, vs solvent control
# Protocol: 2.1 Experimental Animals • Species: Mice • Strain: CB-17 SCID mice • Week age and body weight: 6-8 weeks old, 18-22 g body weight • Gender: male • Supplier: Beijing Vital River Laboratory Animal Technology Co., Ltd • Animal Certificate No.: 11400700184227 3. Experimental Method and Steps 3.1 Cell Culture
# Human prostate cancer LNCaP-FGC cells (ATCC, Manassas, Virginia) were cultured in vitro monolayers under the culture conditions of RPM11640 medium supplemented with […] fetal bovine serum at 37° C. with 5% CO2. Routine digestion treatment with trypsin-EDTA was performed twice a week for passage. When the cell saturation was 80%-90%, the cells were collected, counted, and inoculated.
# 0.2 mL (10×10^6) of LNCaP-FGC cells (10×10^6+Matrigel, 1:1) was inoculated subcutaneously to the right back of each CB-17 SCID mouse. When the average tumor volume reached 100-150 mm^3, administration in groups was started.
# The tumor diameters were measured with a vernier caliper twice a week. The calculation formula of the tumor volume is: V=0.5a×b^2, wherein a and b represent the long diameter and the short diameter of the tumor, respectively. The antitumor efficacy of the compounds were evaluated by TGI (%) or a relative tumor proliferation rate T/C (%). TGI(%)=[(1−(average tumor volume of a treatment group at the end of drug administration−average tumor volume of the treatment group at the beginning of drug administration))/(average tumor volume of the vehicle control group at the end of treatment−average tumor volume of the vehicle control group at the beginning of treatment)]×100%. The calculation formula of the relative tumor proliferation rate T/C (%) is as follows: T/C %=TRTV/CRTV×100% (TRTV: RTV of a treatment group; CRTV: RTV of a negative control group). The relative tumor volume (RTV) is calculated based on the tumor measurement results, and the calculation formula is RTV=Vt/V0, wherein V0 is the average tumor volume measured at the time of administration in groups (i.e., do), Vt is the average tumor volume at one measurement, and TRTV and CRTV are the data obtained on the same day.
# The statistical analysis includes mean and standard error of mean (SEM) of the tumor volume at each time point for each group. […] The comparison between two groups was analyzed by T-test, and the comparison between three or more groups was analyzed by one-way ANOVA. If there was a significant difference in the F value, the Games-Howell method was used for testing. If there was no significant difference in the F value, the Dunnet (2-sided) method was used for analysis. All data analysis was performed by using SPSS 17.0. “p<0.05” was considered a significant difference.
Structure (SMILES),TGI [%],relative tumor proliferation rate T/C [%]
CCc1nc(OCCO)c2cc(N3C(=S)N(c4ccc(C#N)c(C(F)(F)F)c4)C(=O)C3(C)C)ccc2n1 [Compound 27],51.0,53.1
